Assay results taken from the NIST ThermoML archive (doi:10.1021/acs.jced.9b00752).

Assay: mn = molality of the nth substance listed, in mol/kg
Conditions: 100 kPa, Liquid, Vibrating tube method

O=C(O)[C@@H]1CCCN1 [L-proline] + O
mass density [kg/m3]
Conditions | 273.65 K | 274.15 K | 274.65 K | 275.15 K | 275.65 K | 276.15 K | 276.65 K | 277.15 K | 277.65 K | 278.15 K
m1 = 0.0132 | 1000.34 | 1000.37 | 1000.39 | 1000.4 | 1000.41 | 1000.42 | 1000.43 | 1000.43 | 1000.43 | 1000.42
m1 = 0.0326 | 1001.02 | 1001.05 | 1001.07 | 1001.08 | 1001.09 | 1001.1 | 1001.11 | 1001.11 | 1001.1 | 1001.09
m1 = 0.0542 | 1001.77 | 1001.79 | 1001.81 | 1001.82 | 1001.84 | 1001.84 | 1001.84 | 1001.85 | 1001.84 | 1001.83
m1 = 0.0692 | 1002.29 | 1002.31 | 1002.32 | 1002.34 | 1002.34 | 1002.35 | 1002.35 | 1002.35 | 1002.34 | 1002.33
m1 = 0.0808 | 1002.69 | 1002.71 | 1002.73 | 1002.74 | 1002.75 | 1002.75 | 1002.75 | 1002.75 | 1002.74 | 1002.73
m1 = 0.1014 | 1003.41 | 1003.43 | 1003.45 | 1003.46 | 1003.46 | 1003.46 | 1003.46 | 1003.46 | 1003.45 | 1003.43
m1 = 0.1196 | 1004.09 | 1004.11 | 1004.12 | 1004.13 | 1004.13 | 1004.13 | 1004.13 | 1004.13 | 1004.12 | 1004.1
m1 = 0.1326 | 1004.5 | 1004.52 | 1004.53 | 1004.54 | 1004.54 | 1004.54 | 1004.54 | 1004.54 | 1004.52 | 1004.51
m1 = 0.1555 | 1005.27 | 1005.29 | 1005.3 | 1005.3 | 1005.3 | 1005.3 | 1005.3 | 1005.29 | 1005.28 | 1005.26
m1 = 0.1568 | 1005.41 | 1005.42 | 1005.43 | 1005.44 | 1005.44 | 1005.44 | 1005.43 | 1005.43 | 1005.41 | 1005.39
m1 = 0.1835 | 1006.23 | 1006.25 | 1006.25 | 1006.26 | 1006.26 | 1006.25 | 1006.25 | 1006.24 | 1006.22 | 1006.2
m1 = 0.2076 | 1007.04 | 1007.05 | 1007.05 | 1007.05 | 1007.05 | 1007.04 | 1007.04 | 1007.03 | 1007.01 | 1006.99
m1 = 0.2212 | 1007.72 | 1007.73 | 1007.73 | 1007.73 | 1007.72 | 1007.72 | 1007.71 | 1007.7 | 1007.68 | 1007.66
